target: Histone deacetylase; experiment: Inhibition of HDAC in human HeLa cell nuclear extract using Boc-Lys (acetyl)-AMC as substrate preincubated for 5 mins followed by substrate addition measured after 30 mins by fluorescence assay; format: protein assay

IC50 [nM] | SMILES
57.1 | O=C(/C=C/c1ccc(C(=O)NO)cc1)N[C@@H](Cc1c[nH]c2ccccc12)C(=O)Nc1ccccc1Cl
311.9 | CC(C)CNC(=O)[C@H](Cc1c[nH]c2ccccc12)NC(=O)/C=C/c1ccc(C(=O)NO)cc1
22.2 | Cc1cc(C)c(NC(=O)[C@H](Cc2c[nH]c3ccccc23)NC(=O)/C=C/c2ccc(C(=O)NO)cc2)c(C)c1
29.5 | O=C(/C=C/c1ccc(C(=O)NO)cc1)N[C@@H](Cc1c[nH]c2ccccc12)C(=O)Nc1ccc(I)cc1
165.5 | CC(C)(C)NC(=O)[C@H](Cc1c[nH]c2ccccc12)NC(=O)/C=C/c1ccc(C(=O)NO)cc1
112.1 | CCNC(=O)[C@H](Cc1c[nH]c2ccccc12)NC(=O)/C=C/c1ccc(C(=O)NO)cc1

Further lines, the compound ahead of its results:

SMILES | IC50 [nM]
COc1ccc(NC(=O)[C@H](Cc2c[nH]c3ccccc23)NC(=O)/C=C/c2ccc(C(=O)NO)cc2)cc1 | 35.8
O=C(/C=C/c1ccc(C(=O)NO)cc1)N[C@@H](Cc1c[nH]c2ccccc12)C(=O)NC1CCCC1 | 249.1
O=C(/C=C/c1ccc(C(=O)NO)cc1)N[C@@H](Cc1c[nH]c2ccccc12)C(=O)NC1CC1 | 268.9
O=C(/C=C/c1ccc(C(=O)NO)cc1)N[C@@H](Cc1c[nH]c2ccccc12)C(=O)Nc1cccc2ccccc12 | 59.5
CCCCNC(=O)[C@H](Cc1c[nH]c2ccccc12)NC(=O)/C=C/c1ccc(C(=O)NO)cc1 | 84.8

— ChEMBL document CHEMBL4219110, “Structure optimization and preliminary bioactivity evaluation of N-hydroxybenzamide-based HDAC inhibitors with Y-shaped cap” (Bioorg Med Chem, 2018)
